# Source: patent US12180193B2, “Accelerating fibrosarcoma protein degrading compounds and associated methods of use” (Arvinas Operations, Inc., priority 2020, dated 2024)
# Legend:
# [1] = biological target: T1, BRAF V600E (Homo sapiens, UniProt P15056, V600E); assay: Cellular assay of target protein degradation, T-Rex 293 cells stably transfected with HA-BRAF_V600E (HA immunofluorescence, high content imaging); assay type: cell-based; details: T-Rex 293 HA-BRAF V600E; for DC50: half maximal degradation, read-out: BRaf V600E DC50; for Dmax: maximum degradation observed
# T1 construct: expressed in transfected cells
# T1 sequence (P15056 whole entry V600E): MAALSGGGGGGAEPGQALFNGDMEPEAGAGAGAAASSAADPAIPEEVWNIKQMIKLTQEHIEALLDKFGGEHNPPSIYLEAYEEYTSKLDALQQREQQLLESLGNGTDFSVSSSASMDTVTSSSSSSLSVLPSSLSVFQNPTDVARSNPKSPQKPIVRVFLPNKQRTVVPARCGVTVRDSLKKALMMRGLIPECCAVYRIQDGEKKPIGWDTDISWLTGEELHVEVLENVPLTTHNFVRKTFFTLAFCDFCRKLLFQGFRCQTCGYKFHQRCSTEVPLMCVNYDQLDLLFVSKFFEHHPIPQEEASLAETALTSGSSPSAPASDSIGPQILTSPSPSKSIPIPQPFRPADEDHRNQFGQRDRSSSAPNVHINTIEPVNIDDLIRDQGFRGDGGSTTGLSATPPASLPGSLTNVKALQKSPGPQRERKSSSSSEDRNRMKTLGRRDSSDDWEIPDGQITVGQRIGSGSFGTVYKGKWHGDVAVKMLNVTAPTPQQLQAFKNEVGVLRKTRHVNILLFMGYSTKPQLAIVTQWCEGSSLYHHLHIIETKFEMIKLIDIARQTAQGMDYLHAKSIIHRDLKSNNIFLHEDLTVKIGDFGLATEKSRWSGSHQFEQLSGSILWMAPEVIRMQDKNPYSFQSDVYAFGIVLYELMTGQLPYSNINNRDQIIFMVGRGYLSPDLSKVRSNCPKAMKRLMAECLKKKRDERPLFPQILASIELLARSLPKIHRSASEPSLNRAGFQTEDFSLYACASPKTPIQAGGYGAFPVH
# Method in brief: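 24 h compound exposure, 1 μM–0.1 nM final, 0.1% DMSO, 37 °C; cells induced with 1 ng/mL doxycycline. PFA fix, Triton permeabilize, anti-HA overnight 4 °C, Hoechst/phalloidin counterstain. Output: DC50, Dmax as % control.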
# [2] = biological target: T2, BRAF G466V (Homo sapiens, UniProt P15056, G466V); assay: Cellular assay of target protein degradation, T-Rex 293 cells stably transfected with HA-BRAF G466V (HA immunofluorescence, high content imaging); assay type: cell-based; details: T-Rex 293 HA-BRAF G466V; for DC50: half maximal degradation, read-out: BRaf G466V DC50; for Dmax: maximum degradation observed
# T2 construct: expressed in transfected cells
# T2 sequence (P15056 whole entry G466V): as the sequence (P15056 whole entry V600E) above, with G466V, E600V counted along it
# Method in brief: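 24 h compound, 30 nM–3 pM final, 0.1% DMSO, 37° C; HA-BRAF G466V induced with 0.75 ng/mL doxycycline. PFA fix, Triton perm, anti-HA + Alexa fluor secondary, Hoechst/phalloidin counterstain; imaging. DC50, Dmax (% of control).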
Structure (SMILES),DC50 [1] [nM],Dmax [1] [%],DC50 [2] [nM],Dmax [2] [%]
"O=C1CC[C@H](N2Cc3cc(C4CCN(CC5CCN(c6ccc(-c7cnc8[nH]cc(C(=O)c9c(F)ccc(NS(=O)(=O)N%10CC[C@@H](O)C%10)c9F)c8c7)cc6)CC5)CC4)ccc3C2=O)C(=O)N1 [Compound 278, (3R)-N-{3-[5-(4-{4-[(4-{2-[(3S)-2,6-dioxopiperidin-3-yl]-1-oxo-2,3-dihydro-1H-isoindol-5-yl}piperidin-1-yl)methyl]piperidin-1-yl}phenyl)-1H-pyrrolo [2,3-b]pyridine-3-carbonyl]-2,4-difluorophenyl}-3-hydroxypyrrolidine-1-sulfonamide]",5 to 50,35 to 70,1 to 10,35 to 70
"O=C1CC[C@@H](N2Cc3cc(CC[C@H](O)CN4CC5(C4)CN(c4ccc(-c6cnc7[nH]cc(C(=O)c8c(F)ccc(NS(=O)(=O)N9CC[C@@H](F)C9)c8F)c7c6)cc4)C5)ccc3C2=O)C(=O)N1 [Compound 173, (3R)-N-{3-[5-(4-{6-[(2S)-4-{2-[(3R)-2,6-dioxopiperidin-3-yl]-1-oxo-2,3-dihydro-1H-isoindol-5-yl}-2-hydroxybutyl]-2,6-diazaspiro[3.3]heptan-2-yl}phenyl)-1H-pyrrolo[2,3-b]pyridine-3-carbonyl]-2,4-difluorophenyl}-3-fluoropyrrolidine-1-sulfonamide]",5 to 50,35 to 70,1 to 10,> 70
"O=C1CCC(N2Cc3cc(N4CCC(CN5CCN(C6(c7ncc(-c8cnc9[nH]cc(C(=O)c%10c(F)ccc(NS(=O)(=O)N%11CC[C@@H](F)C%11)c%10F)c9c8)cn7)CC6)CC5)CC4)ccc3C2=O)C(=O)N1 (stereo partly drawn) [Compound 298, (3R)-N-{3-[5-(2-{1-[4-({1-[2-(2,6-dioxopiperidin-3-yl)-1-oxo-2,3-dihydro-1H-isoindol-5-yl]piperidin-4-yl}methyl)piperazin-1-yl]cyclopropyl}pyrimidin-5-yl)-1H-pyrrolo[2,3-b]pyridine-3-carbonyl]-2,4-difluorophenyl}-3-fluoropyrrolidine-1-sulfonamide]",50 to 500,< 35,< 1,35 to 70
"C[C@H]1CC[C@H](C)N1S(=O)(=O)Nc1ccc(F)c(C(=O)c2c[nH]c3ncc(-c4ccc(N5CCC(CN6CCC(c7ccc8c(c7)CN([C@H]7CCC(=O)NC7=O)C8=O)CC6)CC5)cc4)cc23)c1F [Compound 262, (2S,5S)-N-{3-[5-(4-{4-[(4-{2-[(3S)-2,6-dioxopiperidin-3-yl]-1-oxo-2,3-dihydro-1H-isoindol-5-yl}piperidin-1-yl)methyl]piperidin-1-yl}phenyl)-1H-pyrrolo [2,3-b]pyridine-3-carbonyl]-2,4-difluorophenyl}-2,5-dimethylpyrrolidine-1-sulfonamide]",5 to 50,< 35,1 to 10,35 to 70
"COc1cc(N2CCC(CN3CC4(C3)CN(c3ccc(-c5cnc6[nH]cc(C(=O)c7c(F)ccc(NS(=O)(=O)N8CCC(F)(F)C8)c7F)c6c5)cc3)C4)CC2)cc2c1C(=O)N(C1CCC(=O)NC1=O)C2 (stereo not drawn) [Compound 247, N-[3-(5-{4-[6-({1-[2-(2,6-dioxopiperidin-3-yl)-7-methoxy-1-oxo-2,3-dihydro-1H-isoindol-5-yl]piperidin-4-yl}methyl)-2,6-diazaspiro[3.3]heptan-2-yl]phenyl}-1H-pyrrolo[2,3-b]pyridine-3-carbonyl)-2,4-difluorophenyl]-3,3-difluoropyrrolidine-1-sulfonamide]",5 to 50,< 35,1 to 10,> 70
"O=C1CC[C@H](N2Cc3cc(C4CCN(CC5CCN(c6ccc(-c7cnc8[nH]cc(C(=O)c9c(F)ccc(NS(=O)(=O)N%10CC[C@@H](F)C%10)c9F)c8c7)cc6)CC5)CC4)ccc3C2=O)C(=O)N1 [Compound 160, (3R)—N-[3-[5-[4-[4-[[4-[2-[(3S)-2,6-dioxo-3-piperidyl]-1-oxo-isoindolin-5-yl]-1-piperidyl]methyl]-1-piperidyl]phenyl]-1H-pyrrolo[2,3-b]pyridine-3-carbonyl]-2,4-difluoro-phenyl]-3-fluoro-pyrrolidine-1-sulfonamide]",< 5,35 to 70,< 1,> 70
"O=C1CC[C@@H](N2Cc3cc(N4CC(CN5C[C@@H]6CN(c7ccc(-c8cnc9[nH]cc(C(=O)c%10c(F)ccc(NS(=O)(=O)N%11CC[C@@H](F)C%11)c%10F)c9c8)cc7)C[C@@H]6C5)C4)ccc3C2=O)C(=O)N1 [Compound 86, (3R)-N-[3-(5-{4-[(3aR,6aS)-5-[(1-{2-[(3R)-2,6-dioxopiperidin-3-yl]-1-oxo-2,3-dihydro-1H-isoindol-5-yl}azetidin-3-yl)methyl]-octahydropyrrolo[3,4-c]pyrrol-2-yl]phenyl}-1H-pyrrolo[2,3-b]pyridine-3-carbonyl)-2,4-difluorophenyl]-3-fluoropyrrolidine-1-sulfonamide]",5 to 50,35 to 70,1 to 10,> 70
"O=C1CC[C@H](N2Cc3cc(C4CN(CC5CCN(c6ccc(-c7cnc8[nH]cc(C(=O)c9c(F)ccc(NS(=O)(=O)N%10CC[C@@H](F)C%10)c9F)c8c7)cc6)CC5)C4)ccc3C2=O)C(=O)N1 [Compound 83, (3R)-N-{3-[5-(4-{4-[(3-{2-[(3S)-2,6-dioxopiperidin-3-yl]-1-oxo-2,3-dihydro-1H-isoindol-5-yl}azetidin-1-yl)methyl]piperidin-1-yl}phenyl)-1H-pyrrolo[2,3-b]pyridine-3-carbonyl]-2,4-difluorophenyl}-3-fluoropyrrolidine-1-sulfonamide]",50 to 500,> 70,< 1,35 to 70
"O=C1CCN(c2ccc(C3CCN(CCC4CCN(c5ccc(-c6cnc7[nH]cc(C(=O)c8c(F)ccc(NS(=O)(=O)N9CC[C@@H](F)C9)c8F)c7c6)cc5)CC4)CC3)cc2F)C(=O)N1 [Compound 199, (3R)-N-[3-(5-[4-[4-(2-[4-[4-(2,4-dioxo-1,3-diazinan-1-yl)-3-fluorophenyl]piperidin-1-yl]ethyl)piperidin-1-yl]phenyl]-1H-pyrrolo[2,3-b]pyridine-3-carbonyl)-2,4-difluorophenyl]-3-fluoropyrrolidine-1-sulfonamide]",5 to 50,35 to 70,1 to 10,35 to 70
"O=C1CCC(N2Cc3cc(N4CCC(CN5CC[C@@H]6[C@H](C5)CN6c5ccc(-c6cnc7[nH]cc(C(=O)c8c(F)ccc(NS(=O)(=O)N9CC[C@@H](F)C9)c8F)c7c6)cc5)CC4)ccc3C2=O)C(=O)N1 (stereo partly drawn) [Compound 311, (3R)-N-[3-(5-{4-[(1R,6R)-3-({1-[2-(2,6-dioxopiperidin-3-yl)-1-oxo-2,3-dihydro-1H-isoindol-5-yl]piperidin-4-yl}methyl)-3,7-diazabicyclo[4.2.0]octan-7-yl]phenyl}-1H-pyrrolo[2,3-b]pyridine-3-carbonyl)-2,4-difluorophenyl]-3-fluoropyrrolidine-1-sulfonamide]",5 to 50,35 to 70,1 to 10,> 70
"O=C1CCC(NC(=O)c2ccc(CCCN3CC4(C3)CN(c3ccc(-c5cnc6[nH]cc(C(=O)c7c(F)ccc(NS(=O)(=O)N8CC[C@@H](F)C8)c7F)c6c5)cc3)C4)cc2F)C(=O)N1 (stereo partly drawn) [Compound 356, 4-{3-[6-(4-{3-[2,6-difluoro-3-({[(3R)-3-fluoropyrrolidin-1-yl]sulfonyl}amino)benzoyl]-1H-pyrrolo[2,3-b]pyridin-5-yl}phenyl)-2,6-diazaspiro[3.3]heptan-2-yl]propyl}-N-(2,6-dioxopiperidin-3-yl)-2-fluorobenzamide]",> 500,–,> 30,–
"O=C1CCC(N2Cc3cc(N4CCC(N5C[C@@H]6C[C@H]5CN(c5ccc(-c7cnc8[nH]cc(C(=O)c9c(F)ccc(NS(=O)(=O)N%10CC[C@@H](F)C%10)c9F)c8c7)cc5)C6)CC4)ccc3C2=O)C(=O)N1 (stereo partly drawn) [Compound 16, (3R)-N-[3-(5-{4-[(1S,5S)-6-{1-[2-(2,6-dioxopiperidin-3-yl)-1-oxo-2,3-dihydro-1H-isoindol-5-yl]piperidin-4-yl}-3,6-diazabicyclo[3.2.1]octan-3-yl]phenyl}-1H-pyrrolo[2,3-b]pyridine-3-carbonyl)-2,4-difluorophenyl]-3-fluoropyrrolidine-1-sulfonamide]",50 to 500,35 to 70,1 to 10,35 to 70
"CC1(c2ccc(C3CCN(CC4CCN(c5ccc(-c6cnc7[nH]cc(C(=O)c8c(F)ccc(NS(=O)(=O)N9CC[C@@H](F)C9)c8F)c7c6)cc5)CC4)CC3)cc2F)CCC(=O)NC1=O (stereo partly drawn) [Compound 176, (3R)-N-[2,4-difluoro-3-(5-{4-[4-({4-[3-fluoro-4-(3-methyl-2,6-dioxopiperidin-3-yl)phenyl]piperidin-1-yl}methyl)piperidin-1-yl]phenyl}-1H-pyrrolo[2,3-b]pyridine-3-carbonyl)phenyl]-3-fluoropyrrolidine-1-sulfonamide]",5 to 50,< 35,1 to 10,35 to 70
"COc1cc(CCCN2CC3(C2)CN(c2ccc(-c4cnc5[nH]cc(C(=O)c6c(F)ccc(NS(=O)(=O)N7CC[C@@H](F)C7)c6F)c5c4)cc2)C3)cc2c1C(=O)N(C1CCC(=O)NC1=O)C2 (stereo partly drawn) [Compound 22, (3R)-N-(3-{5-[4-(6-{3-[2-(2,6-dioxopiperidin-3-yl)-7-methoxy-1-oxo-2,3-dihydro-1H-isoindol-5-yl]propyl}-2,6-diazaspiro[3.3]heptan-2-yl)phenyl]-1H-pyrrolo[2,3-b]pyridine-3-carbonyl}-2,4-difluorophenyl)-3-fluoropyrrolidine-1-sulfonamide]",5 to 50,35 to 70,< 1,35 to 70
